Test results: ChEMBL document CHEMBL4145533, “6,7-Dimorpholinoalkoxy quinazoline derivatives as potent EGFR inhibitors with enhanced antiproliferative activities against tumor cells” (Eur J Med Chem, 2018)
Activity calls are given as the source filed them. No cut-off for these calls is given here.

Tests used:
A549 [1] = experiment: Antiproliferative activity against human A549 cells harboring wild type EGFR/K-ras mutant after 72 hrs by MTT assay; format: functional, cell-based; details: A549, 72 h
[2] = biological target: Epidermal growth factor receptor (Homo sapiens, UniProt P00533, L858R/T790M); experiment: Inhibition of EGFR L858R/T790M double mutant (unknown origin) using ULight-poly GT as substrate preincubated for 30 mins followed by substrate addition measured after 1 hr by spectrophotometric method
[3] = system: Epidermal growth factor receptor (Homo sapiens), P00533 [L858R,T790M]; experiment: Inhibition of EGF-induced EGFR L858R/T790M double mutant activation in human NCI-H1975 cells assessed as reduction in STAT3 phosphorylation at Y705 residue at 5 uM preincubated for 2 hrs followed by EGF stimulation measured after 10 mins by Western blot analysis; format: cell-based
A549 [4] = experiment: Induction of apoptosis in human A549 cells assessed as late apoptotic cells at 4 uM after 48 hrs by Annexin V-FITC/propidium iodide satining based FACS analysis (reference value: 1.21%); format: functional
A549 [5] = experiment: Induction of apoptosis in human A549 cells assessed as necrotic cells at 3 uM after 48 hrs by Annexin V-FITC/propidium iodide satining based FACS analysis (reference value: 0.14%); format: functional
A549 [6] = experiment: Effect on total Akt protein expression in human A549 cells at 0.2 to 5 uM after 2 hrs by Western blot analysis; format: ADME, cell-based; details: a549, 2 h
A549 [7] = experiment: Induction of apoptosis in human A549 cells assessed as late apoptotic cells at 2 uM after 48 hrs by Annexin V-FITC/propidium iodide satining based FACS analysis (reference value: 1.21%); format: functional
A549 [8] = experiment: Induction of apoptosis in human A549 cells assessed as necrotic cells at 2 uM after 48 hrs by Annexin V-FITC/propidium iodide satining based FACS analysis (reference value: 0.14%); format: functional
A549 [9] = experiment: Cell cycle arrest in human A549 cells assessed as accumulation at G0/G1 phase at 1 uM after 48 hrs by propidium iodide satining based FACS analysis (reference value: 48.87%); format: functional
[10] = biological target: Epidermal growth factor receptor (Homo sapiens, UniProt P00533, L858R); experiment: Inhibition of EGFR L858R mutant (unknown origin) using ULight-poly GT as substrate preincubated for 120 mins followed by substrate addition measured after 2 hrs by spectrophotometric method
A549 [11] = experiment: Induction of apoptosis in human A549 cells assessed as early apoptotic cells at 1 uM after 48 hrs by Annexin V-FITC/propidium iodide satining based FACS analysis (reference value: 2.78%); format: functional
A549 [12] = experiment: Induction of apoptosis in human A549 cells assessed as viable cells at 2 uM after 48 hrs by Annexin V-FITC/propidium iodide satining based FACS analysis (reference value: 95.87%); format: functional; details: A549, 48 h, read-out: Activity
[13] = biological target: T1, Epidermal growth factor receptor (Homo sapiens, UniProt P00533); experiment: Inhibition of EGF-induced EGFR activation in human A549 cells assessed as reduction in STAT3 phosphorylation at 0.2 to 5 uM preincubated for 2 hrs followed by EGF stimulation measured after 10 mins by Western blot analysis; format: cell-based
NCI-H1975 = experiment: Antiproliferative activity against human NCI-H1975 cells harboring EGFR L858R/T790M double mutant after 72 hrs by MTT assay; format: functional, cell-based; details: NCI-H1975, 72 h
A549 [14] = experiment: Cell cycle arrest in human A549 cells assessed as accumulation at G2/M phase at 5 uM after 48 hrs by propidium iodide satining based FACS analysis (reference value: 16.09%); format: functional
A549 [15] = experiment: Induction of apoptosis in human A549 cells assessed as early apoptotic cells at 3 uM after 48 hrs by Annexin V-FITC/propidium iodide satining based FACS analysis (reference value: 2.78%); format: functional
[16] = biological target: Epidermal growth factor receptor (Homo sapiens, UniProt P00533, T790M); experiment: Inhibition of EGFR T790M mutant (unknown origin) preincubated for 10 mins followed by TK substrate-botion addition measured after 1 hr by spectrophotometric method
A549 [17] = experiment: Induction of apoptosis in human A549 cells assessed as necrotic cells at 1 uM after 48 hrs by Annexin V-FITC/propidium iodide satining based FACS analysis (reference value: 0.14%); format: functional
[18] = biological target: T1, Epidermal growth factor receptor; experiment: Inhibition of EGF-induced EGFR activation in human A549 cells assessed as reduction in Akt phosphorylation at S473 residue at 0.2 uM preincubated for 2 hrs followed by EGF stimulation measured after 10 mins by Western blot analysis; format: cell-based
[19] = biological target: T1, Epidermal growth factor receptor; experiment: Inhibition of EGF-induced EGFR phosphorylation at Tyrosine residue in human A549 cells at 0.2 uM preincubated for 2 hrs followed by EGF stimulation measured after 10 mins by Western blot analysis; format: cell-based
A549 [20] = experiment: Cell cycle arrest in human A549 cells assessed as accumulation at S phase at 5 uM after 48 hrs by propidium iodide satining based FACS analysis (reference value: 34.45%); format: functional
[21] = biological target: T1, Epidermal growth factor receptor; details: A549, at 5 µM
Description: Inhibition of EGF-induced EGFR phosphorylation at Tyrosine residue in human A549 cells at 5 uM preincubated for 2 hrs followed by EGF stimulation measured after 10 mins by Western blot analysis

A549 [22] = experiment: Cell cycle arrest in human A549 cells after 48 hrs by propidium iodide satining based FACS analysis; format: functional
[23] = system: Epidermal growth factor receptor (Homo sapiens), P00533 [L858R,T790M]; experiment: Inhibition of EGF-induced EGFR L858R/T790M double mutant activation in human NCI-H1975 cells assessed as reduction in Akt phosphorylation at S473 residue at 5 uM preincubated for 2 hrs followed by EGF stimulation measured after 10 mins by Western blot analysis; format: cell-based
[24] = biological target: T1, Epidermal growth factor receptor; details: A549, at 5 µM; remark: listed apart in the source
Description: Inhibition of EGF-induced EGFR phosphorylation at Y992 residue in human A549 cells at 5 uM preincubated for 2 hrs followed by EGF stimulation measured after 10 mins by Western blot analysis

A549 [25] = experiment: Cell cycle arrest in human A549 cells assessed as accumulation at G0/G1 phase at 2 uM after 48 hrs by propidium iodide satining based FACS analysis (reference value: 48.87%); format: functional
A549 [26] = experiment: Induction of apoptosis in human A549 cells assessed as viable cells at 3 uM after 48 hrs by Annexin V-FITC/propidium iodide satining based FACS analysis (reference value: 95.87%); format: functional; details: A549, 48 h, read-out: Activity
A549 [27] = experiment: Induction of apoptosis in human A549 cells assessed as late apoptotic cells at 1 uM after 48 hrs by Annexin V-FITC/propidium iodide satining based FACS analysis (reference value: 1.21%); format: functional
A-431 = experiment: Antiproliferative activity against human A431 cells harboring wild type EGFR after 72 hrs by MTT assay; format: functional, cell-based; details: A-431, 72 h
A549 [28] = experiment: Cell cycle arrest in human A549 cells assessed as accumulation at S phase at 2 uM after 48 hrs by propidium iodide satining based FACS analysis (reference value: 34.45%); format: functional
A549 [29] = experiment: Induction of apoptosis in human A549 cells assessed as necrotic cells at 4 uM after 48 hrs by Annexin V-FITC/propidium iodide satining based FACS analysis (reference value: 0.14%); format: functional
A549 [30] = experiment: Induction of apoptosis in human A549 cells assessed as early apoptotic cells at 4 uM after 48 hrs by Annexin V-FITC/propidium iodide satining based FACS analysis (reference value: 2.78%); format: functional

T1 sequence (P00533 whole entry): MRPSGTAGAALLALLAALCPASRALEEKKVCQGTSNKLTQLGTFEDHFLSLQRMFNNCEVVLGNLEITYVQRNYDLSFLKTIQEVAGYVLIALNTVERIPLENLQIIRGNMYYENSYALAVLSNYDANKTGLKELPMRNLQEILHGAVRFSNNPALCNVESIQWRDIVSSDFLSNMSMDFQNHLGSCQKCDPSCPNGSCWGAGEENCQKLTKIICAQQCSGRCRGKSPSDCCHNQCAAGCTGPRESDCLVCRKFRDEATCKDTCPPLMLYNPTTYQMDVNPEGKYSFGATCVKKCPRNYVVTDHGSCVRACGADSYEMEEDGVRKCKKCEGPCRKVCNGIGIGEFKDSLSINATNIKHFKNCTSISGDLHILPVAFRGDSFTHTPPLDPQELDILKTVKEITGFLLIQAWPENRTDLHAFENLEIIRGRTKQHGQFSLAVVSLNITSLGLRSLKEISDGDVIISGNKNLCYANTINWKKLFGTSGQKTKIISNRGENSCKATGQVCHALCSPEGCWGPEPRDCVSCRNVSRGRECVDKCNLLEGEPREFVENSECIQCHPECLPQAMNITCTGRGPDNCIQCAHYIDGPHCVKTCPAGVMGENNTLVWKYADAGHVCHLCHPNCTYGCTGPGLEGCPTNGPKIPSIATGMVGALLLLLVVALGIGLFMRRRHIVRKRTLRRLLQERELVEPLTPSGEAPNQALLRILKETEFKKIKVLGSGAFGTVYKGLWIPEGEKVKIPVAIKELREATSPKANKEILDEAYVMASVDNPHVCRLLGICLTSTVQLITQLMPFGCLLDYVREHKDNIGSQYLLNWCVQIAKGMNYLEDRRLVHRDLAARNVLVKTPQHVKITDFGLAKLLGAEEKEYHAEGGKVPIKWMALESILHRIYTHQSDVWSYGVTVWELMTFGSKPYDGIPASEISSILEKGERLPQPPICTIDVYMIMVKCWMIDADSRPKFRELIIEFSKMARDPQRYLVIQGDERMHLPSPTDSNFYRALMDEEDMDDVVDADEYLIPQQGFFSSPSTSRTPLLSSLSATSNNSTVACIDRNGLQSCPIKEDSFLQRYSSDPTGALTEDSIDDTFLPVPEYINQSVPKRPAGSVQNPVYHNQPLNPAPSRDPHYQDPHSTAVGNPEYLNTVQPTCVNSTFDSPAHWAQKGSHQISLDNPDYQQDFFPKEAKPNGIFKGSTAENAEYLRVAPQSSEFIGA
Sequence of Epidermal growth factor receptor (Homo sapiens), P00533 [L858R,T790M] (P00533 whole entry T790M/L858R, looked up): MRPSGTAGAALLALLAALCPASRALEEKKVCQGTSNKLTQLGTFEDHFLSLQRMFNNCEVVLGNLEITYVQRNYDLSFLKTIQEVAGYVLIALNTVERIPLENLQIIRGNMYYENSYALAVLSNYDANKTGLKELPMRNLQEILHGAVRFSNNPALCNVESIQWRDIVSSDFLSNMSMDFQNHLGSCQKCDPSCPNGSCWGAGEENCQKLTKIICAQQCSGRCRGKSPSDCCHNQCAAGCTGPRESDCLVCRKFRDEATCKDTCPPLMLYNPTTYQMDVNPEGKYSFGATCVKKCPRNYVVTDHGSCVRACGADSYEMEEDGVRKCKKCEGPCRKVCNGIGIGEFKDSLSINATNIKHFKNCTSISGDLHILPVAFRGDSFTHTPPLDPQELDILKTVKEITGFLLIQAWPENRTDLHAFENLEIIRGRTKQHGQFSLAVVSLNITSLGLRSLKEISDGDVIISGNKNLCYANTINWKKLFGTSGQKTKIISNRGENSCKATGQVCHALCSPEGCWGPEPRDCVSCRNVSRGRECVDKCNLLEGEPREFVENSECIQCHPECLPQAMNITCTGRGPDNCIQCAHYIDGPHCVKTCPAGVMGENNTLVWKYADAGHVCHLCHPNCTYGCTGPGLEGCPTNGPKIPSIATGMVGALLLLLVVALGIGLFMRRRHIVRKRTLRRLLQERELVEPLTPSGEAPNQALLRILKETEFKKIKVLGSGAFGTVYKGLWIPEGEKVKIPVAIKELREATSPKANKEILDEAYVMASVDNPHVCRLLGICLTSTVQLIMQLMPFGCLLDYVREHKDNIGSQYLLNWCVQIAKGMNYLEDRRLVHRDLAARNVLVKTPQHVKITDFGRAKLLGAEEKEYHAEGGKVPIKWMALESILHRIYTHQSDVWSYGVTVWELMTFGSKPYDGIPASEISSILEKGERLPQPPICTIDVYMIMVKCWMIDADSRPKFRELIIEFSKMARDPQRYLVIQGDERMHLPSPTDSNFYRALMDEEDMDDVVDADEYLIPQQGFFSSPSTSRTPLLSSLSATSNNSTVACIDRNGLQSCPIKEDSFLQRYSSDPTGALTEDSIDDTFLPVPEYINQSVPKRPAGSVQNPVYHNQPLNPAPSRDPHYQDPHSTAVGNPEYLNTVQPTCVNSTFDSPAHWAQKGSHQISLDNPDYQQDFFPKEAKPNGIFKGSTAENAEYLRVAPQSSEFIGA
Sequence of Epidermal growth factor receptor (Homo sapiens, UniProt P00533, T790M) (P00533 25-1210 T790M limits assumed): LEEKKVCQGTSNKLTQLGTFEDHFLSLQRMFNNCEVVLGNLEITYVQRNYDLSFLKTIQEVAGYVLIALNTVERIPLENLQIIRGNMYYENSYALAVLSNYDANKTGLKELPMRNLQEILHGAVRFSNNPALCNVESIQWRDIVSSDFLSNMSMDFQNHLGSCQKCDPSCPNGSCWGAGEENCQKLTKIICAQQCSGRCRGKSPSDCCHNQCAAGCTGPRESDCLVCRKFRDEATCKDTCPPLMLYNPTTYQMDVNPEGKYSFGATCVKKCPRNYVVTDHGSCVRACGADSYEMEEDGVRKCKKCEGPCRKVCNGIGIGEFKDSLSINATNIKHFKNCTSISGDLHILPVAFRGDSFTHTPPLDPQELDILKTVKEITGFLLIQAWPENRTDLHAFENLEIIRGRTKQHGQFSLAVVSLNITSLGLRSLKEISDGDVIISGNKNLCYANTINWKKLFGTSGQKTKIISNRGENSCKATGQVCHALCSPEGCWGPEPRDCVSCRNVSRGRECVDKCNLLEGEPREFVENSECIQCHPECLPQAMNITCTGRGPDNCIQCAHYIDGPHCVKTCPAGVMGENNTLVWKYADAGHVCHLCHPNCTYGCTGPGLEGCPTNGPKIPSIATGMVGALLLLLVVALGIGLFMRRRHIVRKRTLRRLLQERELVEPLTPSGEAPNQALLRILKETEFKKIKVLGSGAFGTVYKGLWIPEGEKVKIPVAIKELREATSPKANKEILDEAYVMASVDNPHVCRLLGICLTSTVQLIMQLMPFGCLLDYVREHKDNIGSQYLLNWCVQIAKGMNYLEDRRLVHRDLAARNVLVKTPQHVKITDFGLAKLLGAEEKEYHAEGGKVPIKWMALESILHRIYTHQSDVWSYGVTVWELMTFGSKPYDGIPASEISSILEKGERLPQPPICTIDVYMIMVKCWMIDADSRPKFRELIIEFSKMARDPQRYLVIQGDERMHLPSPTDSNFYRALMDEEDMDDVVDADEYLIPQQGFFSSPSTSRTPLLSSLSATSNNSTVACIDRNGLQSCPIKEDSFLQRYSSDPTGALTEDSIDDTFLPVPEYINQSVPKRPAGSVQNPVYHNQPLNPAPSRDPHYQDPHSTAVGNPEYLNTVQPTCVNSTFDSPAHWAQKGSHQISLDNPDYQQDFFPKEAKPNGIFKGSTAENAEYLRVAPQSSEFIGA
Sequence of Epidermal growth factor receptor (Homo sapiens, UniProt P00533, L858R) (P00533 25-1210 L858R limits assumed): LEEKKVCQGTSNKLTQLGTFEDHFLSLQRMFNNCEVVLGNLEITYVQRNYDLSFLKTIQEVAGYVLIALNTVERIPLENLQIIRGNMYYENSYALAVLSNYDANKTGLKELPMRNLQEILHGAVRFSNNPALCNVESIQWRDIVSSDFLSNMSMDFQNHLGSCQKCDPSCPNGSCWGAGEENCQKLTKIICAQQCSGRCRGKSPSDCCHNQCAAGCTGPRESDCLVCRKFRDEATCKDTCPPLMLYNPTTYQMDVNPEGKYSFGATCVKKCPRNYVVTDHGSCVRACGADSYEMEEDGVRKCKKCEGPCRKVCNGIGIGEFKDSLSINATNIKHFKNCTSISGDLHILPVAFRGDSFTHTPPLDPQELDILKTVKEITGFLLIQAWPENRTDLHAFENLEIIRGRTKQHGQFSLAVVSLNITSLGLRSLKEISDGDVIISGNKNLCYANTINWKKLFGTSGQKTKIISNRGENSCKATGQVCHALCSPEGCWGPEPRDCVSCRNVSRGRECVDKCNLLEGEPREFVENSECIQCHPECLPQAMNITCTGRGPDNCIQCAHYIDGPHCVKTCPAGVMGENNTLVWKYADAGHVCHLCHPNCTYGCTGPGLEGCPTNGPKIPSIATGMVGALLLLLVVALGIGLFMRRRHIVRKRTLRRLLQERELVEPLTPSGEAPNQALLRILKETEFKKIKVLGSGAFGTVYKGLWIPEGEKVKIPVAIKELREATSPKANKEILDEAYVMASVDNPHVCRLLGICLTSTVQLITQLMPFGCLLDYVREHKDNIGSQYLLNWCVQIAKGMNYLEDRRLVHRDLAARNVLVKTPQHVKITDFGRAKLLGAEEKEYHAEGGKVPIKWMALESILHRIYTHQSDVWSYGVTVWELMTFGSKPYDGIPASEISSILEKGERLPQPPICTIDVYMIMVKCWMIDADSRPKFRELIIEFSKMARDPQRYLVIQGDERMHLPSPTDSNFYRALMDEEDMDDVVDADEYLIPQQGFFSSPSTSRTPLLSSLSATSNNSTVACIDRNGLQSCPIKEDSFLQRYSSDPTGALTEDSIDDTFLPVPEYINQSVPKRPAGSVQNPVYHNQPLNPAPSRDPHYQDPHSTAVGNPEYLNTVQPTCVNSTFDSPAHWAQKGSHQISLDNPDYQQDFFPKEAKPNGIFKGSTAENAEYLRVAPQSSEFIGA

- IC50 (A549 [1]): 1650 nM
- IC50 [2]: > 2000 nM
- inhibition [3]: inactive
- IC50 [10]: 323 nM
- inhibition [13]: inactive
- IC50 (NCI-H1975): 4870 nM
- IC50 [16]: 9.3 nM
- inhibition [18]: Active
- inhibition [19]: Active
- inhibition [21]: Active
- inhibition [23]: Active
- inhibition [24]: Active
- IC50 (A-431): 1310 nM
SMILES: Fc1cccc(COc2ccc(Nc3ncnc4cc(OCCCN5CCOCC5)c(OCCCN5CCOCC5)cc34)cc2Cl)c1
- Activity (A549 [4]): 36.18%
- Activity (A549 [5]): 0.23%
- Activity (A549 [6]): Non-Toxic
- Activity (A549 [7]): 7.37%
- Activity (A549 [8]): 0.31%
- Activity (A549 [9]): 52.91%
- Activity (A549 [11]): 3.9%
- viability at 2 µM (A549 [12]): 87.9%
- Activity (A549 [14]): 8.8%
- Activity (A549 [15]): 8.52%
- Activity (A549 [17]): 0.4%
- Activity (A549 [20]): 17.61%
- Activity (A549 [22]): Dose-dependent effect
- Activity (A549 [25]): 58.45%
- viability at 3 µM (A549 [26]): 82.8%
- Activity (A549 [27]): 3.43%
- Activity (A549 [28]): 30.54%
- Activity (A549 [29]): 0.57%
- Activity (A549 [30]): 14.81%
